The record followed here is paper PMC10285738, “Identification of macrocyclic peptides which activate bacterial cylindrical proteases” (RSC Medicinal Chemistry, 2023).

Starred links: 1 amine or outer side, 2 acyl side, 3 side chain; linkers in the order of their positions; H or OH if unused. Positions of bridges follow the written chain, without caps; N, C: chain ends. Non-standard residues stand in square brackets, D forms with d. Residues, ends and D or L forms follow the SMILES beside them. Phe(3,5-F2) = N[C@@H](Cc1cc(F)cc(F)c1)C(=O)O; CH2COCH2 = O=C(C[*:1])C[*:2]

Series [1] in a line: two-component Cys/Cys stapling: bis-thiol-Michael addition to 4,6-divinylpyrimidine bearing N-methylglycine (constraint 1 = A), 1.1 equiv; TCEP 1.1 equiv added if the peptide had oxidised. Conditions: the molecule shown is the open-chain precursor, 100 mM phosphate buffer pH 7.4 with DMSO from peptide and staple stocks, 2.8 mM, 22.0 °C, 2 steps.
A short description of series [2]: two-component Cys/Cys stapling: bis-thioether alkylation with 1,3-dichloroacetone (B), 1.1 equiv; TCEP 1.1 equiv added if the peptide had oxidised. Conditions: the molecule shown is the open-chain precursor, 100 mM phosphate buffer pH 7.4 with DMSO (peptide stock) and MeCN (staple stock), 2.7 mM, 22.0 °C, 2 steps.
Series [3] addresses T1, Sa.ClpP (Staphylococcus aureus, UniProt Q2G036).
T1 construct: Strep-tag (C); made in house; host or cells: E. coli SG1146a (lacks endogenous ClpP)
Kind of series: Thermal shift assay (differential scanning fluorimetry). It counts as binding. Conditions: S. aureus ClpP 5 µM, ligand 200 µM, HEPES 100 mM pH 7, NaCl 150 mM, sypro orange 5x, 30-90 °C in 0.5 °C increments; mean ± SD of duplicates of at least two independent experiments. An excerpt: All concentrations are given as final concentrations. […]
real-time qPCR (Bio-Rad CF X96).
SD of duplicates of at least two independent experiments.
equilibrated Superdex 200 Increase 10/300 GL column (Cytiva). […]

T1 sequence (Q2G036 whole entry): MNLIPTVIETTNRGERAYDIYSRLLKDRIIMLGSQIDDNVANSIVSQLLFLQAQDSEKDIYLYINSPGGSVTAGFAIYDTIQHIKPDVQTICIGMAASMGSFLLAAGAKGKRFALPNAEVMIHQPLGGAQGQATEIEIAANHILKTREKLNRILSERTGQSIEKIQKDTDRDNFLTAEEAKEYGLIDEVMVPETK

On to `C=Cc1cc(CCSC[C@H](NC(C)=O)C(=O)NCC(=O)N[C@H](C(=O)NCC(=O)N[C@@H](C)C(=O)NCC(=O)N[C@@H](CS)C(N)=O)[C@@H](C)CC)nc(N(C)CC(=O)O)n1` [Ac-Cys-Gly-Ile-Gly-Ala-Gly-Cys-NH2], for which the ring closure, yield over several steps in series [1] (30-membered ring) amounted to 90.6%.
Regarding `CC[C@H](C)[C@H](NC(=O)CNC(=O)[C@H](CSCC(=O)CCl)NC(C)=O)C(=O)NCC(=O)N[C@@H](C)C(=O)NCC(=O)N[C@@H](CS)C(N)=O` [Ac-Cys-Gly-Ile-Gly-Ala-Gly-Cys-NH2], in series [2] (26-membered ring), the ring closure, yield over several steps worked out at 18.4%.
For `C=Cc1cc(CCSC[C@H](NC(C)=O)C(=O)NCC(=O)N[C@H](C(=O)NCC(=O)N[C@H](Cc2ccccc2)C(=O)NCC(=O)N[C@@H](CS)C(N)=O)[C@@H](C)CC)nc(N(C)CC(=O)O)n1` [Ac-Cys-Gly-Ile-Gly-D-Phe-Gly-Cys-NH2], the ring closure, yield over several steps in series [1] (30-membered ring) was 61%.
Take `CC[C@H](C)[C@H](NC(=O)CNC(=O)[C@H](CSCC(=O)CCl)NC(C)=O)C(=O)NCC(=O)N[C@H](Cc1ccccc1)C(=O)NCC(=O)N[C@@H](CS)C(N)=O` [Ac-Cys-Gly-Ile-Gly-D-Phe-Gly-Cys-NH2]: the ring closure, yield over several steps in series [2] (26-membered ring) was 46.6%.
As for `C=Cc1cc(CCSC[C@H](NC(C)=O)C(=O)NCC(=O)N[C@H](C(=O)NCC(=O)N[C@@H](Cc2cc(F)cc(F)c2)C(=O)NCC(=O)N[C@@H](CS)C(N)=O)[C@@H](C)CC)nc(N(C)CC(=O)O)n1` [Ac-Cys-Gly-Ile-Gly-Phe(3,5-F2)-Gly-Cys-NH2], the ring closure, yield over several steps in series [1] (30-membered ring) is 14.1%.
Regarding `CC[C@H](C)[C@H](NC(=O)CNC(=O)[C@H](CSCC(=O)CCl)NC(C)=O)C(=O)NCC(=O)N[C@@H](Cc1cc(F)cc(F)c1)C(=O)NCC(=O)N[C@@H](CS)C(N)=O` [Ac-Cys-Gly-Ile-Gly-Phe(3,5-F2)-Gly-Cys-NH2], the ring closure, yield over several steps in series [2] (26-membered ring) turned out to be 43.3%.
On to `C=Cc1cc(CCSC[C@H](NC(C)=O)C(=O)NCC(=O)N[C@H](C(=O)NCC(=O)N[C@@H](Cc2ccccc2)C(=O)NCC(=O)N[C@@H](C)C(=O)N[C@@H](CS)C(N)=O)[C@@H](C)CC)nc(N(C)CC(=O)O)n1` [Ac-Cys-Gly-Ile-Gly-Phe-Gly-Ala-Cys-NH2], for which the ring closure, yield over several steps in series [1] (33-membered ring) was 46.2%.
Turning to `CC[C@H](C)[C@H](NC(=O)CNC(=O)[C@H](CSCC(=O)CCl)NC(C)=O)C(=O)NCC(=O)N[C@@H](Cc1ccccc1)C(=O)NCC(=O)N[C@@H](C)C(=O)N[C@@H](CS)C(N)=O` [Ac-Cys-Gly-Ile-Gly-Phe-Gly-Ala-Cys-NH2], the ring closure, yield over several steps in series [2] (29-membered ring) turned out to be 48.3%.
As for `C=Cc1cc(CCSC[C@H](NC(C)=O)C(=O)NCC(=O)N[C@H](C(=O)NCC(=O)N[C@@H](Cc2ccccc2)C(=O)NCC(=O)N[C@@H](C)C(=O)N[C@H](C(=O)N[C@@H](CS)C(N)=O)[C@@H](C)O)[C@@H](C)CC)nc(N(C)CC(=O)O)n1` [Ac-Cys-Gly-Ile-Gly-Phe-Gly-Ala-Thr-Cys-NH2], the ring closure, yield over several steps in series [1] (36-membered ring) turned out to be 34.3%.
As for `CC[C@H](C)[C@H](NC(=O)CNC(=O)[C@H](CSCC(=O)CCl)NC(C)=O)C(=O)NCC(=O)N[C@@H](Cc1ccccc1)C(=O)NCC(=O)N[C@@H](C)C(=O)N[C@H](C(=O)N[C@@H](CS)C(N)=O)[C@@H](C)O` [Ac-Cys-Gly-Ile-Gly-Phe-Gly-Ala-Thr-Cys-NH2], the ring closure, yield over several steps in series [2] (32-membered ring) is 19%.
In the case of `C=Cc1cc(CCSC[C@H](NC(C)=O)C(=O)NCC(=O)N[C@H](C(=O)NCC(=O)N[C@@H](Cc2ccccc2)C(=O)NCC(=O)N[C@@H](CS)C(N)=O)[C@@H](C)CC)nc(N(C)CC(=O)O)n1` [Ac-Cys-Gly-Ile-Gly-Phe-Gly-Cys-NH2], in series [1] (30-membered ring), the ring closure, yield over several steps was found to be 6.8%.
Regarding `CC[C@H](C)[C@H](NC(=O)CNC(=O)[C@H](CSCC(=O)CCl)NC(C)=O)C(=O)NCC(=O)N[C@@H](Cc1ccccc1)C(=O)NCC(=O)N[C@@H](CS)C(N)=O` [Ac-Cys-Gly-Ile-Gly-Phe-Gly-Cys-NH2], the ring closure, yield over several steps in series [2] (26-membered ring) worked out at 27.3%.
In the case of `C=Cc1cc(CCSC[C@H](NC(C)=O)C(=O)N[C@H](C(=O)NCC(=O)N[C@@H](Cc2ccccc2)C(=O)NCC(=O)N[C@@H](C)C(=O)N[C@@H](CS)C(N)=O)[C@@H](C)CC)nc(N(C)CC(=O)O)n1` [Ac-Cys-Ile-Gly-Phe-Gly-Ala-Cys-NH2], the ring closure, yield over several steps in series [1] (30-membered ring) is 25.7%.
Regarding `CC[C@H](C)[C@H](NC(=O)[C@H](CSCC(=O)CCl)NC(C)=O)C(=O)NCC(=O)N[C@@H](Cc1ccccc1)C(=O)NCC(=O)N[C@@H](C)C(=O)N[C@@H](CS)C(N)=O` [Ac-Cys-Ile-Gly-Phe-Gly-Ala-Cys-NH2], the ring closure, yield over several steps in series [2] (26-membered ring) came out at 13.5%.
On to `C=Cc1cc(CCSC[C@H](NC(C)=O)C(=O)N[C@H](C(=O)NCC(=O)N[C@@H](Cc2ccccc2)C(=O)NCC(=O)N[C@@H](C)C(=O)N[C@H](C(=O)N[C@@H](CS)C(N)=O)[C@@H](C)O)[C@@H](C)CC)nc(N(C)CC(=O)O)n1` [Ac-Cys-Ile-Gly-Phe-Gly-Ala-Thr-Cys-NH2], for which, in series [1] (33-membered ring), the ring closure, yield over several steps worked out at 20.5%.
Take `CC[C@H](C)[C@H](NC(=O)[C@H](CSCC(=O)CCl)NC(C)=O)C(=O)NCC(=O)N[C@@H](Cc1ccccc1)C(=O)NCC(=O)N[C@@H](C)C(=O)N[C@H](C(=O)N[C@@H](CS)C(N)=O)[C@@H](C)O` [Ac-Cys-Ile-Gly-Phe-Gly-Ala-Thr-Cys-NH2]: the ring closure, yield over several steps in series [2] (29-membered ring) came to 55.3%.
With `C=Cc1cc(CCSC[C@H](NC(C)=O)C(=O)N[C@H](C(=O)NCC(=O)N[C@@H](Cc2ccccc2)C(=O)NCC(=O)N[C@@H](CS)C(N)=O)[C@@H](C)CC)nc(N(C)CC(=O)O)n1` [Ac-Cys-Ile-Gly-Phe-Gly-Cys-NH2], the ring closure, yield over several steps in series [1] (27-membered ring) turned out to be 75.6%.
On to `CC[C@H](C)[C@@H]1NC(=O)CNC(=O)[C@@H](NC(C)=O)CSCC(=O)CSC[C@@H](C(N)=O)NC(=O)CNC(=O)[C@H](Cc2cc(F)cc(F)c2)NC(=O)CNC1=O` [P9-B] (Ac-CGIG[Phe(3,5-F2)]GC-NH2; linker 1-7 via CH2COCH2), for which the “apparent increase in melting temperature of Sa.ClpP” value in series [3] came to 1.1 ± 0.2 °C.
